Like-named read-outs stand apart in the source and are kept apart here.
Legend:
[1] = pharmacokinetics in plasma and brain after intraperitoneal administration (UPLC-MS/MS); type: in vivo, mouse; set-up: key to Brain Concentration over time, sex-dependent difference / Plasma Concentration over time, sex-dependent difference: F, female; M, male; NS, not statistically different; conditions: for Kp / half-life / Tmax: CD-1, mouse, ip; for Kp: brain and plasma; for half-life: terminal half-life; for Brain Concentration over time, sex-dependent difference / Plasma Concentration over time, sex-dependent difference / Brain Total exposure (AUC), sex-dependent difference / Plasma Total exposure (AUC), sex-dependent difference: female vs male mice; for Brain Concentration over time, sex-dependent difference / Plasma Concentration over time, sex-dependent difference: ANOVA, Holm-Šídák post-hoc; for Brain Total exposure (AUC), sex-dependent difference / Plasma Total exposure (AUC), sex-dependent difference: t-test; for Tmax: earliest sampling time 10 min
Protocol: Male and female CD-1 mice (Charles Rivers Laboratories, Raleigh, NC, USA), 8-11 weeks old at the time of testing, were habituated to the University of Maryland (Baltimore, MD, USA) animal facility for at least one week prior to testing. Mice were group housed 4-5 per cage with a constant 12-hour light cycle (lights on/off at 07:00/19:00). Food and water were available ad libitum. All experiments were performed during the light phase. All animal studies were approved by the University of Maryland School of Medicine Institutional Animal Care and Use Committee and conducted in accordance with the National Institutes of Health Guide for the Care and Use of Laboratory Animals.
(2R,6R)-HNK hydrochloride, (2S,6S)-HNK hydrochloride, (2R,6S)-HNK, (2S,6R)-HNK, (2R,5R)-HNK, (2S,5S)-HNK, (2R,5S)-HNK, (2S,5R)-HNK, (2R,4R)-HNK, (2S,4S)-HNK, (2R,4S)-HNK, and (2S,4R)-HNK hydrochloride were synthesized at the National Center for Advancing Translation Sciences (National Institutes of Health, Rockville, MD, USA) using methods previously described in Morris et al., Org Lett 17:4572-4575 (2017), which is incorporated by reference herein in its entirety. (5R)-methyl-(2R,6R)-HNK was obtained from Organix Inc. (Woburn, MA, USA) or from the National Center for Advancing Translational Sciences (Rockville, MD, USA); synthesis and characterization are described in the Supplemental Information. All compounds were dissolved in 20% (w/v) cyclodextrin (Sigma Aldrich, USA) in saline and administered intraperitoneally (i.p.) in a volume of 7.5 ml/kg.
At 10 min (0.167 h), 30 min (0.5 h), 1 h, 2 h, and 4 h post-treatment, mice were deeply anesthetized (3.5% isoflurane for approximately 2 min). Trunk blood was collected into 1.5-ml polypropylene tubes containing 30 μl of disodium EDTA (0.5 M, pH 8.0) and kept on ice until plasma collection (<30 min). Brains were then removed, flash-frozen in isopentane, and stored at −80° C. until analysis. Blood was centrifuged at 8000×g for 6 min at 4° C. to obtain plasma. Plasma was collected into clean microcentrifuge tubes and stored at −80° C. until analysis.
Ultra-performance liquid chromatography-tandem mass spectrometry (UPLC-MS/MS) methods were developed and optimized to determine the concentration of each HNK in mouse plasma and brain samples following systemic administration. Mass spectrometric analysis was performed on a Waters Xevo TQ-S triple quadrupole instrument using electrospray ionization in positive mode with the selected reaction monitoring. The separation of HNKs from endogenous components was performed on a Waters Acquity UPLC with 0.5 ml/min flow rate and gradient elution. The mobile phase A and B were 0.1% formic acid in water and 0.1% formic acid in acetonitrile, respectively. Plasma and brain concentrations of (2R,6R)-, (2S,6S)-, (2R,4S)-, and (2S,4R)-HNK were determined by hydrophilic interaction liquid chromatography-tandem mass spectrometry (HILIC UPLC-MS/MS) using a BEH amide column (1.7μ, 2.1×50 mm). Plasma and brain concentrations of (2R,6S)-, (2S,6R)-, (2R,5R)- (2S,5S)-, (2R,5S)-, (2S,5R)-, (2R,4R)-, and (2S,4S)-HNK; and (5R)-methyl-(2R,6R)-HNK were determined by reversed phase UPLC-MS/MS based upon a previously described protocol with several modifications using a BEH C18 column ([…], 2.1×50 mm). See Moaddel et al., Talanta 82:1892-1904 (2010), and Zanos et al., Nature 533:481-486 ([…]), both of which are incorporated by reference herein in their entireties.
The gradient for HILIC UPLC method was: 0-0.2 min 98% B; 0.2-1.4 min 98% to 35% B; 1.4-1.8 min 35% to 10% B, 1.9-2.4 min 98% B. The gradient for BEH Cis UPLC method was: 0-0.2 min 1% B; 0.2-1.4 min 1% to 35% B; 1.4-1.8 min 35% to 98% B, 1.8-2.2 min 98% B, 2.3 min 1% B. The analytical run time of the UPLC methods was 2.5 min. The calibration standards and quality control samples were prepared in blank mouse plasma and brain homogenate. Calibration standards ranged from 5.0-5000 ng/ml. […]

[2] = test system: mice; experiment: antidepressant-relevant behavioral actions after oral administration; type: in vivo, mouse
[3] = test system: mice; conditions: i.p.; earlier study; cited from earlier work
[4] = i.p.; earlier study; cited from earlier work
[5] = target: NMDARs; conditions: read-out: Ki (binding / inhibition of NMDARs); cited from earlier work
[6] = female mice, i.p. 5 mg/kg, read-out: B:P ratio (brain to plasma AUC ratio)
[7] = male mice, i.p. 5 mg/kg, read-out: B:P ratio (brain to plasma AUC ratio)
[8] = brain, female mice, i.p. 5 mg/kg, read-out: t1/2 Brain (converted)
[9] = brain, male mice, i.p. 5 mg/kg, read-out: t1/2 Brain (converted)
[10] = plasma, female mice, i.p. 5 mg/kg, read-out: t1/2 Plasma (converted)
[11] = plasma, male mice, i.p. 5 mg/kg, read-out: t1/2 Plasma (converted)
[12] = male mice, equivalent systemic doses

| SMILES | Kp [1, 6] | Kp [1, 7] | half-life [1, 8] [min] | half-life [1, 9] [min] | half-life [1, 10] [min] | half-life [1, 11] [min] | Brain Concentration over time, sex-dependent difference ([1]; i.p. 5 mg/kg) | Plasma Concentration over time, sex-dependent difference ([1]; i.p. 5 mg/kg) | Brain Total exposure (AUC), sex-dependent difference ([1]; i.p. 5 mg/kg) | Plasma Total exposure (AUC), sex-dependent difference ([1]; i.p. 5 mg/kg) | lowest dose reducing forced swim test immobility time [3] [mg/kg] | lowest dose reducing escape failures in the learned helplessness test [4] [mg/kg] | Ki [5] [µM] | peak and total brain levels, lower compared to equivalent dosing with (2R,6R)-HNK ([1]; male mice) | other results |
| --- | --- | --- | --- | --- | --- | --- | --- | --- | --- | --- | --- | --- | --- | --- | --- |
| N[C@@]1(c2ccccc2Cl)CCC[C@@H](O)C1=O [(2R,6R)-HNK, (2R,6R)-hydroxynorketamine] | 1.3 | 1.3 | 36 | 36 | 36 | 36 | F > M at 10, 30 min | F > M at 10, 30 min | F > M | F > M | 5 | 3 | > 100 |  | oral doses exerting antidepressant-relevant behavioral actions [2]: 15 to 50 mg/kg |
| N[C@@]1(c2ccccc2Cl)CCC[C@H](O)C1=O [(2R,6S)-HNK] | 0.7 | 0.6 | 24 | 42 |  | 54 | NS | main effect of sex, M > F | M > F | M > F |  |  |  | two-fold | brain concentration at 4 h post-treatment ([1]; females, but not males, i.p. 5 mg/kg, LLOQ 5.0 ng/ml): below LLOQs |
| N[C@]1(c2ccccc2Cl)CCC[C@H](O)C1=O [(2S,6S)-HNK, (2S,6S)-hydroxynorketamine] | 1.2 |  | 42 | 42 |  | 42 | F > M at 10, 30 min | main effect of sex, F > M | F > M | F > M | 25 | 75 | 7.34 to 21.2 |  | Cmax and AUC, fold greater than those of (2R,6R)-HNK [1, 12]: 2-3 fold; peak and total brain levels, fold greater than those of (2R,6R)-HNK [1, 12]: 2-3 fold |
| C[C@@H]1CC[C@@](N)(c2ccccc2Cl)C(=O)[C@@H]1O.Cl [(5R)-methyl-(2R,6R)-HNK, (2R,5R,6R)-2-amino-2-(2-chlorophenyl)-6-hydroxy-5-methylcyclohexan-1-one hydrochloride] | 0.4 | 0.4 | 42 | 48 | 48 | 48 | NS | main effect of sex, M > F | M > F | M > F |  |  |  |  | Tmax ([1]; brain, both sexes, i.p. 5 mg/kg, read-out: Tmax in the brain (converted)): 10 min; Tmax ([1]; plasma, both sexes, i.p. 5 mg/kg, read-out: Tmax in the plasma (converted)): 10 min; Kp ([1]; both sexes, male and female mice, i.p. 5 mg/kg, read-out: brain to plasma AUC (exposure) ratio): 0.4 |
| N[C@]1(c2ccccc2Cl)CCC[C@@H](O)C1=O [(2S,6R)-HNK] | 1.4 | 1.2 |  |  |  | 42 | main effect of sex, F > M | NS | F > M | F > M |  |  |  | three-fold |  |
